The values that follow come from US20090131431A1, “Pyrazolo[3,4-b]pyridine compounds, and their use as a PDE4 inhibitors” (priority 2005, published 2009).

The experiment addresses T1, PDE4B (human recombinant) (Homo sapiens, UniProt Q07343).
T1 construct: made in house
The experiment is described as follows: Inhibition of PDE4B activity: SPA and/or Fluorescence Polarisation (FP) assay. It counts as biochemical. The following applies: one reading (n=1) or average of 2 or more readings, read-out: PDE4B pIC50 (±about 0.5) (converted). An outline of the steps: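 Human recombinant PDE4B activity measured by SPA with [3H]cAMP at about 10 nM, 1 h at ambient temperature, enzyme set for ≤20% substrate hydrolysis, or by IMAP FP with Fl-cAMP at about 40 nM, 40 min at ambient temperature under linear conditions. Inhibition curves fitted; values reported as pIC50.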
Background: Polarisation of emitted light reports the rotation of a fluorescent probe.

T1 sequence (Q07343 1-564 isoform Q07343-2): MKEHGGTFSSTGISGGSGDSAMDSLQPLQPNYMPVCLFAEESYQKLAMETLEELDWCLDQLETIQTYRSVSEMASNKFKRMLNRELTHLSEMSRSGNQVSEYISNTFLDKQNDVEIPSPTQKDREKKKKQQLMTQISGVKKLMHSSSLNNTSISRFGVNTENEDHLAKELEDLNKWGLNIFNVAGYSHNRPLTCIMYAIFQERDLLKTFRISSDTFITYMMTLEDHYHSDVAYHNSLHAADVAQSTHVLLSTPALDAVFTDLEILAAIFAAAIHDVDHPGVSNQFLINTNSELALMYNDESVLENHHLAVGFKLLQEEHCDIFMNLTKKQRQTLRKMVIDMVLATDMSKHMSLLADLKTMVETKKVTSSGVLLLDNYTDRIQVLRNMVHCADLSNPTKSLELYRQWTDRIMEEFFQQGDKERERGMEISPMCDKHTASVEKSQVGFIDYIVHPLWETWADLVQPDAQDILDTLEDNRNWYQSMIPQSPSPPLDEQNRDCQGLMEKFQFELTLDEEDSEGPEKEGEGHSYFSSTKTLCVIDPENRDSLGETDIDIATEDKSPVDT

As to `CCn1ncc2c(NC3CCOCC3)c(CNC(=O)c3ccc(N4CCCC4=O)cc3)c(C)nc21` [Example 288, N-{[1-ethyl-6-methyl-4-(tetrahydro-2H-pyran-4-ylamino)-1H-pyrazolo[3,4-b]pyridin-5-yl]methyl}-4-(2-oxo-1-pyrrolidinyl)benzamide], the IC50 is 0.01 to 0.1 nM.

`CCn1ncc2c(NC3CCOCC3)c(CNC(=O)c3ccc(C(N)=O)cc3)c(C)nc21` [Example 279, N-{[1-ethyl-6-methyl-4-(tetrahydro-2H-pyran-4-ylamino)-1H-pyrazolo[3,4-b]pyridin-5-yl]methyl}-1,4-benzenedicarboxamide]: the IC50 is 0.126 to 1 nM. With `CCc1nc2c(cnn2CC)c(NC2CCOCC2)c1CNC(=O)c1ccnnc1` [Example 150, N-{[1,6-diethyl-4-(tetrahydro-2H-pyran-4-ylamino)-1H-pyrazolo[3,4-b]pyridin-5-yl]methyl}-4-pyridazinecarboxamide], the IC50 was 0.126 to 1 nM. To `CCc1nc2c(cnn2CC)c(NC2CCOCC2)c1CNC(=O)c1ccccc1` [Example 196, N-{[1,6-diethyl-4-(tetrahydro-2H-pyran-4-ylamino)-1H-pyrazolo[3,4-b]pyridin-5-y]methyl}benzamide] belongs 0.126 to 1 nM.

With `CCc1nc2c(cnn2CC)c(NC2CCOCC2)c1CNC(=O)c1cc(S(=O)(=O)NCC2CC2)ccc1OC` [Example 183, 5-{[(cyclopropylmethyl)amino]sulfonyl}-N-{[1,6-diethyl-4-(tetrahydro-2H-pyran-4-ylamino)-1H-pyrazolo[3,4-b]pyridin-5-yl]methyl}-2-(methyloxy)benzamide], the IC50 was 0.01 to 0.1 nM. With `CCc1nc2c(cnn2CC)c(NC2CCOCC2)c1CNC(=O)c1ccc2c(=O)[nH][nH]c2c1` [Example 257, N-{[1,6-diethyl-4-(tetrahydro-2H-pyran-4-ylamino)-1H-pyrazolo[3,4-b]pyridin-5-yl]methyl}-3-oxo-2,3-dihydro-1H-indazole-6-carboxamide], the IC50 is 0.01 to 0.1 nM. Consider `CCc1nc2c(cnn2CC)c(NC2CCOCC2)c1CNC(=O)c1cccc(NC(C)=O)c1` [Example 147, 3-(acetylamino)-N-{[1,6-diethyl-4-(tetrahydro-2H-pyran-4-ylamino)-1H-pyrazolo[3,4-b]pyridin-5-yl]methyl}benzamide], for which the IC50 was 0.01 to 0.1 nM. To `CCn1ncc2c(NC3CCOCC3)c(CNC(=O)c3ccn(C)n3)c(C)nc21` [Example 229, N-{[1-ethyl-6-methyl-4-(tetrahydro-2H-pyran-4-ylamino)-1H-pyrazolo[3,4-b]pyridin-5-yl]methyl}-1-methyl-1H-pyrazole-3-carboxamide] belongs 0.126 to 1 nM; to `CCc1nc2c(cnn2CC)c(NC2CCOCC2)c1CNC(=O)c1ccc(C(F)(F)F)o1` [Example 323, N-{[1,6-diethyl-4-(tetrahydro-2H-pyran-4-ylamino)-1H-pyrazolo[3,4-b]pyridin-5-yl]methyl}-5-(trifluoromethyl)-2-furancarboxamide], 0.01 to 0.1 nM; to `CCn1ncc2c(NC3CCN(C(N)=O)CC3)c(CNC(=O)c3ccc(C(C)(C)C)cc3)c(C)nc21` [Example 262, 4-({5-[({[4-(1,1-dimethylethyl)phenyl]carbonyl}amino)methyl]-1-ethyl-6-methyl-1H-pyrazolo[3,4-b]pyridin-4-yl}amino)-1-piperidinecarboxamide], 0.01 to 0.1 nM. To `CCc1nc2c(cnn2CC)c(NC2CCOCC2)c1CNC(=O)c1ccc(C(=O)NC)cc1` [Example 255, N-{[1,6-diethyl-4-(tetrahydro-2H-pyran-4-ylamino)-1H-pyrazolo[3,4-b]pyridin-5-yl]methyl}-N′-methyl-1,4-benzenedicarboxamide] belongs 0.01 to 0.1 nM; to `CCn1ncc2c(NC3CCOCC3)c(CNC(=O)c3cnc(C(C)C)nc3)c(C)nc21` [Example 347, N-{[1-ethyl-6-methyl-4-(tetrahydro-2H-pyran-4-ylamino)-1H-pyrazolo[3,4-b]pyridin-5-yl]methyl}-2-(1-methylethyl)-5-pyrimidinecarboxamide], 0.126 to 1 nM.

For the compound `CCn1ncc2c(NC3CCOCC3)c(CN3Cc4ccc(F)cc4C3=O)c(C)nc21` [Example 314, 2-{[1-ethyl-6-methyl-4-(tetrahydro-2H-pyran-4-ylamino)-1H-pyrazolo[3,4-b]pyridin-5-yl]methyl}-6-fluoro-2,3-dihydro-1H-isoindol-1-one], the IC50 was 0.126 to 1 nM. The value for `CCn1ncc2c(NC3CCOCC3)c(CNC(=O)c3cccc(N4CCCC4=O)c3)c(C)nc21` [Example 216, N-{[1-ethyl-6-methyl-4-(tetrahydro-2H-pyran-4-ylamino)-1H-pyrazolo[3,4-b]pyridin-5-yl]methyl}-3-(2-oxo-1-pyrrolidinyl)benzamide] was 0.126 to 1 nM.

In the case of `CCn1ncc2c(NC3CCOCC3)c(CNC(=O)c3ccc(C(C)(C)C)cc3O)c(C)nc21` [Example 285, 4-(1,1-dimethylethyl)-N-{[1-ethyl-6-methyl-4-(tetrahydro-2H-pyran-4-ylamino)-1H-pyrazolo[3,4-b]pyridin-5-yl]methyl}-2-hydroxybenzamide], the IC50 was 0.01 to 0.1 nM.

For `CCn1ncc2c(NC3CCOCC3)c(CNC(=O)c3ccc(S(C)(=O)=O)cc3)c(C)nc21` [Example 124, N-{[1-ethyl-6-methyl-4-(tetrahydro-2H-pyran-4-ylamino)-1H-pyrazolo[3,4-b]pyridin-5-yl]methyl}-4-(methylsulfonyl)benzamide], the IC50 was 0.126 to 1 nM. To `CCc1nc2c(cnn2CC)c(NC2CCOCC2)c1CNC(=O)NCc1ccccc1` [Example 200] belongs 0.126 to 1 nM; to `CCOc1ccccc1C(=O)NCc1c(CC)nc2c(cnn2CC)c1NC1CCOCC1` [Example 160, N-{[1,6-diethyl-4-(tetrahydro-2H-pyran-4-ylamino)-1H-pyrazolo[3,4-b]pyridin-5-yl]methyl}-2-(ethyloxy)benzamide], 0.01 to 0.1 nM. For `CCc1nc2c(cnn2CC)c(NC2CCOCC2)c1CNC(=O)c1ccc(-n2cccc2)nc1` [Example 148, N-{[1,6-diethyl-4-(tetrahydro-2H-pyran-4-ylamino)-1H-pyrazolo[3,4-b]pyridin-5-yl]methyl}-6-(1H-pyrrol-1-yl)-3-pyridinecarboxamide], the IC50 is 0.01 to 0.1 nM.

As to `CCc1nc2c(cnn2CC)c(NC2CCOCC2)c1CNC(=O)c1ccc(C)cc1O` [Example 254, N-{[1,6-diethyl-4-(tetrahydro-2H-pyran-4-ylamino)-1H-pyrazolo[3,4-b]pyridin-5-yl]methyl}-2-hydroxy-4-methylbenzamide], the IC50 is 0.01 to 0.1 nM.

Take `CCc1nc2c(cnn2CC)c(NC2CCOCC2)c1CNC(=O)c1ccc(NC(C)=O)c2c1OCC2` [Example 306, 4-(acetylamino)-N-{[1,6-diethyl-4-(tetrahydro-2H-pyran-4-ylamino)-1H-pyrazolo[3,4-b]pyridin-5-yl]methyl}-2,3-dihydro-1-benzofuran-7-carboxamide]: the IC50 is 0.01 to 0.1 nM. As for `CCc1nc2c(cnn2CC)c(NC2CCOCC2)c1CNC(=O)c1ccc(S(C)(=O)=O)cc1` [Example 249, N-{[1,6-diethyl-4-(tetrahydro-2H-pyran-4-ylamino)-1H-pyrazolo[3,4-b]pyridin-5-yl]methyl}-4-(methylsulfonyl)benzamide], the IC50 was 0.126 to 1 nM. The value for `CCc1nc2c(cnn2CC)c(NC2CCOCC2)c1CNC(=O)c1coc(C)n1` [Example 310, N-{[1,6-diethyl-4-(tetrahydro-2H-pyran-4-ylamino)-1H-pyrazolo[3,4-b]pyridin-5-yl]methyl}-2-methyl-1,3-oxazole-4-carboxamide] was 0.126 to 1 nM.
